For data set [1] the following is noted: marketed products and foods listed for comparison; cited from earlier work.
For data set [2] the following is noted: marketed products and foods listed for comparison; cited from earlier work. The source holds these as a separate data set.
Data set [3] can be described thus: ORAC assay, phenolic compounds found in strawberries. The class given is biochemical. The settings on record: strawberry combinations and individual antioxidants; values per gram. The source says:
FIG. 5 provides the structures. […] Solubility was checked after thawing and dilution. […] All possible combinations of two compounds were mixed on an equal volume basis after being prepared at the concentrations found in Table 4 to ensure relative concentrations were maintained. Mixtures were then further diluted to match the lowest individual compound molarity to fit the Trolox standard curve. […] The same pattern was repeated for combinations of four: the top three synergistic combinations of three were combined with all possible fourth compounds. No statistically significant increases in antioxidant capacity were found for combinations of four. […] Combinations were prepared on the same day of their ORAC assay. ORAC assays were carried out according to Dávalos et al. […] Parameters of the assay were as follows: reader temperature: 37 degrees C., cycle number, 120; cycle time, 60 seconds; shaking mode, 3 seconds of orbital shaking before each cycle. A fluorescence filter with an excitation wavelength of 485/20 nm and an emission wavelength of 520/20 nm was used. Samples were prepared in 96-well plates in a mirror fashion, based on a planned layout. Each mirrored duplicate was averaged and counted as one data point. All samples were measured in quadruplicate (eight wells total) to obtain necessary statistical power. […] The data were analyzed using a Microsoft Excel 2007 (Microsoft, Redmond, Wash., USA) spreadsheet to determine area under the curve and to convert the data to Trolox equivalents based on the Trolox standard curve. […] Likewise, for combinations of three and four, the difference was calculated by subtracting the average of the individual three or four compounds from the combination. […] Difference=(combination abc)−(combination ab+individual c) (7) Difference=(combination abcd)−(combination abc+d) (8)

Data set [4] is described as follows: Solubility on stock solution preparation. The settings on record: weighable concentrations, stock solution in methanol / NaOH.
Procedure: Because of the high water content of oranges, no density adjustment was made. Compounds were prepared assuming 100 g was 100 mL in volume. All compounds except hesperidin and luteolin were weighed (10× to 1000× of Table 1 concentration to facilitate weighing) and dissolved in methanol. […] The phenolic stock solutions were stored in 1 mL aliquots at −20.C. Phenolics were brought to RT, vortexed, and diluted in 7:3 (v:v) acetone:water to match the fruit concentrations in Table 1. To fit the Trolox standard curve (see below for assay description), compounds were further diluted in 7:3 (v:v) acetone:water to the following molar concentrations prior to transfer to the 96-well plate: chlorogenic acid, 10.7 μM; hesperidin, 10.2 μM; luteolin, 2.45 μM; myricetin, 0.786 μM; naringenin, 2.61 μM; pcoumaric acid, 1.95 μM; and quercetin, 6.62 μM. Solubility was checked after thawing and dilution. All work involving phenolic compounds, fluorescein, and Trolox was performed in dark conditions to minimize degradation.
It was assumed that 1 g fruit puree was 1 ml in volume for sample preparation, as a density adjustment would not change relative concentrations that would be tested. All compounds except ellagic acid were weighed then dissolved in methanol. […] The phenolic stock solutions were stored in 1 mL aliquots at −20° C. […]
The conditions of data set [5]: published values (Jorgensen & Skibsted 1998; Foley et al. 1999); cited from earlier work.

For `O=C1O[C@H]([C@@H](O)CO)C(O)=C1O` [ascorbic acid (vitamin C), ascorbic acid], in data set [1], the “ORAC Value (μmol Trolox Equivalents/g of mixture)” value was 2,000 μmol Trolox Equivalents/g of mixture. Moreover, in data set [2], the “ORAC Value” is recorded as 2,000 mol Trolox Equivalents/g of mixture. `O=c1oc2c(O)c(O)cc3c(=O)oc4c(O)c(O)cc1c4c23` [ellagic acid]: the ORAC Value (µmol Trolox equivalents/g) in data set [3] was 7820 µmol Trolox equivalents/g.

For `COc1ccc([C@@H]2CC(=O)c3c(O)cc(O[C@@H]4O[C@H](CO[C@@H]5O[C@@H](C)[C@H](O)[C@@H](O)[C@H]5O)[C@@H](O)[C@H](O)[C@H]4O)cc3O2)cc1O` [hesperidin], in data set [4], the solubility entry was “only fully soluble at weighable concentrations in a basic solution”. As for `O=c1c(O)c(-c2ccc(O)cc2)oc2cc(O)cc(O)c12` [kaempferol], the one-electron reduction potential in data set [5] is listed as 0.39 V.

With `O=C(O)/C=C/c1ccc(O)cc1` [p-coumaric acid], the ORAC Value (µmol Trolox equivalents/g) in data set [3] is 20500 µmol Trolox equivalents/g. Also, the one-electron reduction potential in data set [5] is 0.59 V.

`O=c1c(O[C@@H]2O[C@H](CO)[C@@H](O)[C@H](O)[C@H]2O)c(-c2ccc(O)c(O)c2)oc2cc(O)cc(O)c12` [quercetin-3-glucoside]: the ORAC Value (µmol Trolox equivalents/g) in data set [3] is 20300 µmol Trolox equivalents/g.

On to `O=c1c(O)c(-c2ccc(O)c(O)c2)oc2cc(O)cc(O)c12` [quercetin], for which the one-electron reduction potential in data set [5] is 0.29 V.

Source of the values: US20110136245A1, “SYNERGISTIC INTERACTIONS OF PHENOLIC COMPOUNDS FOUND IN FOOD” (priority 2009, published 2011).
